{"source": "ChEMBL document CHEMBL5252643", "about": "“Jozibrevine D from Ancistrocladus ileboensis, the fifth alkaloid in a series of six possible atropo-diastereomeric naphthylisoquinoline dimers, showing antiparasitic and antileukemic activities” (Bioorg Med Chem Lett, 2023)", "key": {"[1]": {"test": "Selectivity ratio of IC50 for human CEM/ADR5000 cells to IC50 for human CCRF-CEM cells", "type": "functional"}, "[2]": {"system": "ADR5000 cell line", "test": "Cytotoxicity against multidrug resistant human CEM/ADR5000 cells", "type": "functional, cell-based"}, "[3]": {"system": "CCRF-CEM", "test": "Cytotoxicity against human CCRF-CEM cells", "type": "functional, cell-based"}, "[4]": {"test": "Selectivity index, ratio of IC50 for rat L6 cells to IC50 for Plasmodium falciparum NF54", "type": "toxicity", "settings": "L6 cells versus Plasmodium falciparum NF54, read-out: Ratio IC50"}, "[5]": {"system": "Plasmodium falciparum", "test": "Antiplasmodial activity against Plasmodium falciparum NF54", "type": "functional, organism-based"}, "[6]": {"system": "Leishmania donovani", "test": "Antileishmanial activity against Leishmania donovani", "type": "functional, organism-based"}, "[7]": {"system": "Trypanosoma brucei rhodesiense", "test": "Antitrypanosomal activity against Trypanosoma brucei rhodesiense", "type": "functional, organism-based"}, "[8]": {"test": "Cytotoxicity against rat L6 cells assessed as reduction in cell viability by resazurin dye based assay", "type": "toxicity"}, "[9]": {"system": "Trypanosoma cruzi", "test": "Antitrypanosomal activity against Trypanosoma cruzi", "type": "functional, organism-based"}}, "note": "pIC50: −log10 of the molar value.", "data": [{"smiles": "COc1cccc2c(-c3ccc4c(c3O)[C@@H](C)N[C@H](C)C4)c(C)c(-c3c(C)c(-c4ccc5c(c4O)[C@@H](C)N[C@H](C)C5)c4cccc(OC)c4c3O)c(O)c12", "note": "(stereo in doubt; 4d)", "values": [{"measurement": "Ratio IC50", "setting": "[1]", "result": 1.42}, {"measurement": "pIC50", "setting": "[2]", "result": 5.12}, {"measurement": "pIC50", "setting": "[3]", "result": 5.27}]}, {"smiles": "COc1cccc2c(-c3ccc4c(c3O)[C@@H](C)N[C@H](C)C4)c(C)c(-c3c(C)c(-c4ccc5c(c4O)[C@@H](C)N[C@H](C)C5)c4cccc(OC)c4c3O)c(O)c12", "note": "(stereo in doubt; 4e)", "values": [{"measurement": "selectivity ratio", "setting": "[4]", "result": 45.4}, {"measurement": "pIC50", "setting": "[5]", "result": 6.86}, {"measurement": "pIC50", "setting": "[6]", "result": 3.98}, {"measurement": "pIC50", "setting": "[7]", "result": 6.28}, {"measurement": "Ratio IC50", "setting": "[1]", "result": 1.45}, {"measurement": "pIC50", "setting": "[8]", "result": 5.21}, {"measurement": "pIC50", "setting": "[2]", "result": 4.78}, {"measurement": "pIC50", "setting": "[3]", "result": 4.94}, {"measurement": "pIC50", "setting": "[9]", "result": 4.65}]}]}
